Results taken from ChEMBL document CHEMBL3639062, “Triazolopyridazines as PAR1 inhibitors, production thereof, and use as medicaments” (2015).

Target: T1, Proteinase-activated receptor 1 (Homo sapiens, UniProt P25116)
T1 sequence (P25116 whole entry): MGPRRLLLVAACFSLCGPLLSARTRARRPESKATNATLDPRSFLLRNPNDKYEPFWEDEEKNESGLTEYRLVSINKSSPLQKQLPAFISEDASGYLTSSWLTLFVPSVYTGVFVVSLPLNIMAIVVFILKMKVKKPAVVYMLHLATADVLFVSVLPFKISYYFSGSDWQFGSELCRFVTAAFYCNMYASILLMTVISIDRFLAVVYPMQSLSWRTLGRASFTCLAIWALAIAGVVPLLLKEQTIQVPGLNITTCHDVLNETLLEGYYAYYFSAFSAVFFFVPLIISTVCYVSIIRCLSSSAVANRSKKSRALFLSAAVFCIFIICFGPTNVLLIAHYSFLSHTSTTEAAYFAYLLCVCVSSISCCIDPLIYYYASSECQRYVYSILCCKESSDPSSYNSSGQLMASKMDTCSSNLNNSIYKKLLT
Assay: Binding Assay: The synthesized substances were examined in a PAR1 binding test. This tested whether the substances can inhibit the binding of a radioactively labeled PAR1 agonist known from the literature at the PAR1 receptor (Ho-Sam Ahn, Mol Pharm, 51:350-356, 1997). The human PAR1 receptor was expressed transiently in High Five insect cells. From these cells, after 48 hours, a membrane preparation was produced by standard methods, aliquoted into 10 mM Tris-HCl; 0.3 mM EDTA; 1 mM EGTA; 250 mM sucrose pH 7.5, and stored at -80 C.The substances were preincubated with the membrane at room temperature for 15 minutes, then the radioligand (ALA-(para-F-Phe)-Arg-ChA-homoArg-(3,4-3H-Tyr)-NH2; approx. 40 Ci/mMol) was added. The end concentration of the radioligand in the test buffer (50 mM Tris-HCl; 10 mM MgCl2; 1 mM EGTA; 0.1% BSA; 2% DMSO) was 20 nM, that of the membrane 1 mg/ml. After an incubation time of 60 minutes, 25 uL of the mixture were transferred to a 96-well MultiScreenHTS FB.

IC50: 951 nM
SMILES: CCC(CC)Oc1nn2c(=N)n(CC(=O)c3cc(OC)cc(C(C)(C)C)c3)nc2cc1C
